From patent US11667649B2, “Heteroaromatic macrocyclic ether chemotherapeutic agents” (Nuvalent, Inc., priority 2020, dated 2023)

Tests used:
[1] = biological target: T1, TRKA-wt kinase domain (Homo sapiens, UniProt P04629); assay: Biochemical kinase assay, TRKA-wt; settings: 2 mM ATP substrate solution, read-out: Ki^app TRKA-wt
T1 construct: TRKA-wt (1 nM, BPS Bio, 40280) kinase domains in buffer; purchased BPS Bio 40280
Method in brief: (§1)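 Continuous fluorescence read (λ=485 nm, every 2 min, 120 min, 30° C). Substrate solution held 2 mM ATP and 26 μM AQT0101 (ROS1/ALK) or AQT0104 (TRKA). Kinase solution: ROS1-G2032R 0.5 nM, ROS1-wt 0.6 nM, TRKA 1 nM, ALK double mutant 3 nM. Initial linear rates fed a Morrison-equation fit giving Ki^app.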

[2] = biological target: T2, ROS1-G2032R kinase domain (Homo sapiens, UniProt P08922, G2032R); assay: Biochemical kinase assay, ROS1-G2032R; settings: 2 mM ATP substrate solution, read-out: Ki^app ROS1-G2032R
T2 construct: TRKA-wt (1 nM, BPS Bio, 40280) kinase domains in buffer; purchased SignalChem R14-12BG
Method in brief: as §1

[3] = biological target: T3, ALK-wt kinase domain (Homo sapiens, UniProt Q9UM73); assay: Biochemical kinase assay, ALK-wt; settings: 2 mM ATP substrate solution, read-out: Ki^app ALK-wt
T3 construct: TRKA-wt (1 nM, BPS Bio, 40280) kinase domains in buffer; purchased Carna 08-518
Method in brief: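 Compound in DMSO added first, then substrate solution (ATP 2 mM; AQT0101 or AQT0104, 26 μM; pH 7.5 HEPES, 10 mM MgCl2), then kinase solution with enzyme at 0.5–3 nM depending on construct. Kinetic read every 2 min for 120 min at 30° C; Ki^app by Morrison regression.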

[4] = biological target: T4, ALK L1196M/G1202R kinase domain (Homo sapiens, UniProt Q9UM73, G1202R/L1196M); assay: Biochemical kinase assay, ALK L1196M/G1202R; settings: 2 mM ATP substrate solution, read-out: Ki^app ALK-L1196M-G1202R
T4 construct: TRKA-wt (1 nM, BPS Bio, 40280) kinase domains in buffer; purchased SignalChem A19-12NG
Method in brief: as §1

[5] = biological target: T5, ROS1-wt kinase domain (Homo sapiens, UniProt P08922); assay: Biochemical kinase assay, ROS1-wt; settings: 2 mM ATP substrate solution, read-out: Ki^app ROS1-wt
T5 construct: TRKA-wt (1 nM, BPS Bio, 40280) kinase domains in buffer; purchased Carna 08-163
Method in brief: as §1

Ki [1] | Ki [2] | Ki [3] | Ki [4] | Ki [5] | SMILES
50 to 500 nM | < 50 nM | < 50 nM | < 50 nM | < 50 nM | C[C@H]1Oc2cc(cnc2N)-c2c(nnn2CC2CC2)Cc2cccnc2-c2ccc(F)cc21 [Compound 116]
> 500 nM | 50 to 500 nM | < 50 nM | < 50 nM | < 50 nM | C[C@H]1Oc2cc(cnc2N)-c2c(C#N)nn(C)c2Cc2ccccc2-c2ccc(F)cc21 [Compound 117]
< 50 nM | > 500 nM | < 50 nM | 50 to 500 nM | < 50 nM | CC(C)n1nc2c(c1C#N)-c1cnc(N)c(c1)O[C@H](C)c1cc(F)ccc1-n1nccc1C2 [Compound 118]
< 50 nM | 50 to 500 nM | < 50 nM | < 50 nM | < 50 nM | CCn1nc2c(c1C#N)-c1cnc(N)c(c1)O[C@H](C)c1cc(F)ccc1-n1nccc1C2 [Compound 119]
50 to 500 nM | 50 to 500 nM | < 50 nM | 50 to 500 nM | < 50 nM | CCc1noc2c1-c1cnc(N)c(c1)O[C@H](C)c1cc(F)ccc1-c1nncn1C2 [Compound 120]
50 to 500 nM | < 50 nM | < 50 nM | < 50 nM | < 50 nM | C[C@H]1Oc2cc(cnc2N)-c2c(cnn2CC2CC2)Cc2cn(C)nc2-c2ccc(F)cc21 [Compound 121]
50 to 500 nM | < 50 nM | < 50 nM | < 50 nM | < 50 nM | C[C@H]1Oc2cc(cnc2N)-c2c(nnn2CC2CC2)Cc2cc(C(F)F)nn2-c2ccc(F)cc21 [Compound 122]
> 500 nM | < 50 nM | < 50 nM | < 50 nM | < 50 nM | C[C@H]1Oc2cc(cnc2N)-c2c(c(C#N)nn2CC2CC2)Cc2cccnc2-c2ccc(F)cc21 [Compound 123]
50 to 500 nM | < 50 nM | < 50 nM | < 50 nM | < 50 nM | COc1cc2n(n1)-c1ccc(F)cc1[C@@H](C)Oc1cc(cnc1N)-c1c(c(C)nn1CC1CC1)C2 [Compound 124]
> 500 nM | < 50 nM | < 50 nM | < 50 nM | < 50 nM | Cc1cc2n(n1)-c1ccc(F)cc1COc1cc(cnc1N)-c1c(cnn1CC1CC1)C2 [Compound 126]
50 to 500 nM | < 50 nM | < 50 nM | < 50 nM | < 50 nM | C[C@H]1Oc2cc(cnc2N)-c2c(nnn2CC2CC2)Cc2cc(C(F)(F)F)nn2-c2ccc(F)cc21 [Compound 128]
50 to 500 nM | < 50 nM | < 50 nM | < 50 nM | < 50 nM | C[C@H]1Oc2cc(cnc2N)-c2c(cnn2CC2CC2)Cc2cc(C(F)F)nn2-c2ccc(F)cc21 [Compound 130]
50 to 500 nM | < 50 nM | < 50 nM | < 50 nM | < 50 nM | C[C@H]1Oc2cc(cnc2N)-c2c(C#N)nn(C)c2Cc2cc(C(F)F)nn2-c2ccc(F)cc21 [Compound 132]
> 500 nM | 50 to 500 nM | < 50 nM | < 50 nM | < 50 nM | C[C@H]1Oc2cc(cnc2N)-c2c(c(Cl)nn2CC2CC2)Cc2cn(C)nc2-c2ccc(F)cc21 [Compound 133]
50 to 500 nM | < 50 nM | < 50 nM | < 50 nM | < 50 nM | Cc1nc2c(s1)Cc1c(C)nn(CC3CC3)c1-c1cnc(N)c(c1)O[C@H](C)c1cc(F)ccc1-2 [Compound 134]
50 to 500 nM | < 50 nM | < 50 nM | < 50 nM | < 50 nM | Cc1nn(CC2CC2)c2c1Cc1cccnc1-c1ccc(F)cc1[C@@H](C)Oc1cc-2cnc1N [Compound 135]
50 to 500 nM | < 50 nM | < 50 nM | < 50 nM | < 50 nM | C[C@H]1Oc2cc(cnc2N)-c2c(cnn2CC2CC2)Cc2cccnc2-c2ccc(F)cc21 [Compound 137]
> 500 nM | < 50 nM | < 50 nM | < 50 nM | < 50 nM | Nc1ncc2cc1OCc1cc(F)ccc1-n1nc(C(F)F)cc1Cc1cnn(CC3CC3)c1-2 [Compound 138]
50 to 500 nM | < 50 nM | < 50 nM | < 50 nM | < 50 nM | C[C@H]1Oc2cc(cnc2N)-c2c(cnn2C2COC2)Cc2cn(C)nc2-c2ccc(F)cc21 [Compound 139]

Ki [1] | Ki [2] | Ki [3] | Ki [4] | Ki [5] | SMILES
50 to 500 nM | < 50 nM | < 50 nM | < 50 nM | < 50 nM | CCn1cc2c(n1)-c1ccc(F)cc1[C@@H](C)Oc1cc(cnc1N)-c1c(cnn1CC1CC1)C2 [Compound 140]
50 to 500 nM | < 50 nM | < 50 nM | < 50 nM | < 50 nM | Cc1cc2n(n1)-c1ccc(F)cc1[C@@H](C)Oc1cc(cnc1N)-c1c(c(C)nn1CC1CC1)C2 [Compound 141]
50 to 500 nM | < 50 nM | < 50 nM | < 50 nM | < 50 nM | C[C@H]1Oc2cc(cnc2N)-c2c(C#N)nn(C)c2Cc2csnc2-c2ccc(F)cc21 [Compound 143]
50 to 500 nM | < 50 nM | < 50 nM | < 50 nM | < 50 nM | COc1cc2n(n1)-c1ccc(F)cc1[C@@H](C)Oc1cc(cnc1N)-c1c(nnn1CC1CC1)C2 [Compound 144]
50 to 500 nM | < 50 nM | < 50 nM | < 50 nM | < 50 nM | CCn1ncc2c1-c1cnc(N)c(c1)O[C@H](C)c1cc(F)ccc1-c1nc(OC)ccc1C2 [Compound 145]
50 to 500 nM | < 50 nM | < 50 nM | < 50 nM | < 50 nM | C[C@H]1Oc2cc(cnc2N)-c2c(CC3CC3)cnn2Cc2cccnc2-c2ccc(F)cc21 [Compound 146]
< 50 nM | < 50 nM | < 50 nM | < 50 nM | < 50 nM | CCn1nc(OC)c2c1-c1cnc(N)c(c1)O[C@H](C)c1cc(F)ccc1-n1nc(C(F)F)cc1C2 [Compound 147]
> 500 nM | 50 to 500 nM | < 50 nM | < 50 nM | < 50 nM | CCn1nc(Br)c2c1-c1cnc(N)c(c1)O[C@H](C)c1cc(F)ccc1-c1nn(C)cc1C2 [Compound 148]
< 50 nM | < 50 nM | < 50 nM | < 50 nM | < 50 nM | CCn1ncc2c1-c1cnc(N)c(c1)O[C@H](C)c1cc(F)ccc1-c1ncc(OC)cc1C2 [Compound 149]
50 to 500 nM | < 50 nM | < 50 nM | < 50 nM | < 50 nM | CCn1ncc2c1-c1cnc(N)c(c1)O[C@H](C)c1cc(F)ccc1-c1nn(C(C)(C)C)cc1C2 [Compound 150]
< 50 nM | < 50 nM | < 50 nM | < 50 nM | < 50 nM | CCn1ncc2c1-c1cnc(N)c(c1)O[C@H](C)c1cc(F)ccc1-c1nccc(OC)c1C2 [Compound 151]
< 50 nM | < 50 nM | < 50 nM | < 50 nM | < 50 nM | CCc1onc2c1-c1cnc(N)c(c1)O[C@H](C)c1cc(F)ccc1-c1nn(C)cc1C2 [Compound 152]
< 50 nM | < 50 nM | < 50 nM | < 50 nM | < 50 nM | CCn1nc(C(C)C)c2c1-c1cnc(N)c(c1)O[C@H](C)c1cc(F)ccc1-c1nn(C)cc1C2 [Compound 153]
> 500 nM | < 50 nM | < 50 nM | < 50 nM | < 50 nM | CC(C)Cn1ncc2c1-c1cnc(N)c(c1)O[C@H](C)c1cc(F)ccc1-c1nn(C)cc1C2 [Compound 154]
< 50 nM | < 50 nM | < 50 nM | < 50 nM | < 50 nM | CCc1nsc2c1-c1cnc(N)c(c1)O[C@H](C)c1cc(F)ccc1-c1nn(C)cc1C2 [Compound 155]
50 to 500 nM | < 50 nM | < 50 nM | < 50 nM | < 50 nM | CCn1nc(C#N)c2c1-c1cnc(N)c(c1)O[C@H](C)c1cc(F)ccc1-c1nn(C)cc1C2 [Compound 156]
< 50 nM | < 50 nM | < 50 nM | < 50 nM | < 50 nM | CCn1ncc2c1-c1cnc(N)c(c1)O[C@H](C)c1cc(F)ccc1-c1nn(C)c(OC)c1C2 [Compound 157]
< 50 nM | < 50 nM | < 50 nM | < 50 nM | < 50 nM | CCc1nn(CC)c2c1Cc1cn(C)nc1-c1ccc(F)cc1[C@@H](C)Oc1cc-2cnc1N [Compound 158]
